As a reminder, the MIC is the lowest concentration that inhibits growth of the organism.

In brackets after ≈: the same amount, converted by molar mass.

The record followed here is patent US20110015119A1, “NOVEL SEMI-SYNTHETIC GLYCOPEPTIDES AS ANTIBACTERIAL AGENTS” (LEAD THERAPEUTICS, INC., priority 2009, published 2011).

Holding throughout (format): cell-based
Test [1] has as its system Enterococcus faecium 752 (VRE, Van A). The experiment in a line: MIC by broth microdilution, EFcm 752. The conditions noted are these: Enterococcus faecium 752 (VRE, Van A); class symbols; read-out: MIC E FCM 752. Summed up:
(§1)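 Broth microdilution in Mueller-Hinton broth per NCCLS/CLSI procedure, with automated serial dilution and liquid transfer. Strains are clinical isolates sensitive or resistant to natural glycopeptides.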
(In general: In broth dilution the organism is exposed to a series of concentrations in liquid medium.)

For test [2], the system named is Streptococcus pyogenes 712. The experiment in a line: MIC by broth microdilution, SPY 712. As to conditions: Streptococcus pyogenes 712; class symbols; read-out: MIC S PYO 712. The method, boiled down:
as §1

Test [3] deals with Enterococcus faecalis 101 (ATCC 29212). The experiment in a line: MIC by broth microdilution, EFc 101. As to conditions: ATCC29212; Enterococcus faecalis 101 (ATCC 29212); class symbols; read-out: MIC E FC 101. Summed up:
as §1

The subject of test [4] is Enterococcus faecalis 848 (VRE, Van A). The experiment in a line: MIC by broth microdilution, EFc 848. As to conditions: Enterococcus faecalis 848 (VRE, Van A); class symbols; read-out: MIC E FC 848. Summed up:
as §1

In test [5] the test system is Staphylococcus aureus 2012 (VISA). The experiment in a line: MIC by broth microdilution, SA 2012. As to conditions: Staphylococcus aureus 2012 (VISA); class symbols; read-out: MIC SA 2012. The method, boiled down:
as §1

The subject of test [6] is Staphylococcus epidermidis 831 (MRSE). The experiment in a line: MIC by broth microdilution, SE 831. The conditions noted are these: Staphylococcus epidermidis 831 (MRSE); class symbols; read-out: MIC SE 831. The method, boiled down:
as §1

In another test the test system is Enterococcus faecium 800. The experiment in a line: MIC by broth microdilution, EFcm 800. The conditions noted are these: Enterococcus faecium 800; class symbols; read-out: MIC E FCM 800. The method, boiled down: as §1
The test system of test [7] is Staphylococcus aureus 100 (ATCC 29213). The experiment in a line: MIC by broth microdilution, SA 100. As to conditions: ATCC29213; Staphylococcus aureus 100 (ATCC 29213); class symbols; read-out: MIC SA 100. Summed up: as §1
The subject of test [8] is Staphylococcus aureus 757 (MRSA). The experiment in a line: MIC by broth microdilution, SA 757. As to conditions: Staphylococcus aureus 757 (MRSA); class symbols; read-out: MIC SA 757. The method, boiled down:
as §1

In test [9] the test system is Staphylococcus epidermidis 835. The experiment in a line: MIC by broth microdilution, SE 835. As to conditions: Staphylococcus epidermidis 835; class symbols; read-out: MIC SE 835. The method, boiled down: as §1
The test system of test [10] is Streptococcus pneumoniae 1195 (ATCC 49619). The experiment in a line: MIC by broth microdilution, SPNE 1195. As to conditions: ATCC49619; Streptococcus pneumoniae 1195 (ATCC 49619); class symbols; read-out: MIC S PNE 1195. Summed up:
as §1

On to `CCCCCCc1ccc(S(=O)(=O)NCCCCCCNCc2c(O)cc3c(c2O)-c2cc(ccc2O)[C@H]2NC(=O)[C@@H]4NC(=O)[C@H](CC(N)=O)NC(=O)[C@H](NC(=O)[C@@H](CC(C)C)NC)[C@H](O)c5ccc(c(Cl)c5)Oc5cc4cc(c5O[C@@H]4O[C@H](CO)[C@@H](O)[C@H](O)[C@H]4O[C@H]4C[C@](C)(NC(C)=O)[C@H](O)[C@H](C)O4)Oc4ccc(cc4Cl)[C@@H](O)[C@H](NC2=O)C(=O)N[C@@H]3C(=O)O)cc1` (atropisomer, axis not shown) [Compound 363], for which the MIC in [1] was in the range of 2 to 4 µg/mL (≈ 1.08 to 2.17 µM); in test [2], 0.01 to 0.5 µg/mL (≈ 0.00542 to 0.271 µM); in test [3], 0.01 to 0.5 µg/mL (≈ 0.00542 to 0.271 µM); in [4] it was 8 to 16 µg/mL (≈ 4.34 to 8.68 µM); in test [5] it was 0.01 to 0.5 µg/mL (≈ 0.00542 to 0.271 µM); in test [6], 0.01 to 0.5 µg/mL (≈ 0.00542 to 0.271 µM). Further, the MIC (with Enterococcus faecium 800; in test [7]; in test [8]; in test [9]; in test [10]) was 0.01 to 0.5 µg/mL (≈ 0.00542 to 0.271 µM) in each case.

Consider `CCCCCCc1ccc(S(=O)(=O)NCCCCCCNCc2c(O)cc3c(c2O)-c2cc(ccc2O)[C@H]2NC(=O)[C@@H]4NC(=O)[C@H](CC(N)=O)NC(=O)[C@H](NC(=O)[C@@H](CC(C)C)NC)[C@H](O)c5ccc(c(Cl)c5)Oc5cc4cc(c5O[C@@H]4O[C@H](CO)[C@@H](O)[C@H](O)[C@H]4O[C@H]4C[C@](C)(NC(=O)NC5CC5)[C@H](O)[C@H](C)O4)Oc4ccc(cc4Cl)[C@@H](O)[C@H](NC2=O)C(=O)N[C@@H]3C(=O)O)cc1` (atropisomer, axis not shown) [Compound 365], for which the MIC in test [1] is 1 to 2 µg/mL (≈ 0.531 to 1.06 µM); in [2], 0.01 to 0.5 µg/mL (≈ 0.00531 to 0.265 µM); in test [3], 0.01 to 0.5 µg/mL (≈ 0.00531 to 0.265 µM); in test [4], above 16 µg/mL; in test [5], 0.01 to 0.5 µg/mL (≈ 0.00531 to 0.265 µM); in test [6] it was 0.01 to 0.5 µg/mL (≈ 0.00531 to 0.265 µM). Further, the MIC (in the test with Enterococcus faecium 800; in test [7]; in test [8]; in test [9]; in test [10]) was 0.01 to 0.5 µg/mL (≈ 0.00531 to 0.265 µM) in each case.

For `CCCCCCCCc1ccc(S(=O)(=O)NCCCCCCNCc2c(O)cc3c(c2O)-c2cc(ccc2O)[C@H]2NC(=O)[C@@H]4NC(=O)[C@H](CC(N)=O)NC(=O)[C@H](NC(=O)[C@@H](CC(C)C)NC)[C@H](O)c5ccc(c(Cl)c5)Oc5cc4cc(c5O[C@@H]4O[C@H](CO)[C@@H](O)[C@H](O)[C@H]4O[C@H]4C[C@](C)(NC(=O)NC5CC5)[C@H](O)[C@H](C)O4)Oc4ccc(cc4Cl)[C@@H](O)[C@H](NC2=O)C(=O)N[C@@H]3C(=O)O)cc1` (atropisomer, axis not shown) [Compound 366], the MIC in test [1] is 2 to 4 µg/mL (≈ 1.05 to 2.09 µM); in test [2], 0.01 to 0.5 µg/mL (≈ 0.00523 to 0.261 µM); in [3] it was 0.01 to 0.5 µg/mL (≈ 0.00523 to 0.261 µM); in test [4], 8 to 16 µg/mL (≈ 4.18 to 8.36 µM); in test [5] it was 0.01 to 0.5 µg/mL (≈ 0.00523 to 0.261 µM); in [6] it was 0.01 to 0.5 µg/mL (≈ 0.00523 to 0.261 µM). For the same compound, the MIC (with Enterococcus faecium 800; in [7]; in [8]; in [9]; in test [10]) was 0.01 to 0.5 µg/mL (≈ 0.00523 to 0.261 µM) in each case.

`CCCCCCc1ccc(NC(=O)NCCCCCCNCc2c(O)cc3c(c2O)-c2cc(ccc2O)[C@H]2NC(=O)[C@@H]4NC(=O)[C@H](CC(N)=O)NC(=O)[C@H](NC(=O)[C@@H](CC(C)C)NC)[C@H](O)c5ccc(c(Cl)c5)Oc5cc4cc(c5O[C@@H]4O[C@H](CO)[C@@H](O)[C@H](O)[C@H]4O[C@H]4C[C@](C)(NC(=O)NC5CC5)[C@H](O)[C@H](C)O4)Oc4ccc(cc4Cl)[C@@H](O)[C@H](NC2=O)C(=O)N[C@@H]3C(=O)O)cc1` (atropisomer, axis not shown) [Compound 368]: the minimum inhibitory concentration (MIC) in test [1] was 2 to 4 µg/mL (≈ 1.07 to 2.15 µM); in test [2], 0.01 to 0.5 µg/mL (≈ 0.00537 to 0.268 µM); in test [3], 0.01 to 0.5 µg/mL (≈ 0.00537 to 0.268 µM); in test [4] it was above 16 µg/mL; in [5], 0.5 to 1 µg/mL (≈ 0.268 to 0.537 µM); in test [6], 0.01 to 0.5 µg/mL (≈ 0.00537 to 0.268 µM). Moreover, the MIC (in the test with Enterococcus faecium 800; in [7]; in test [8]; in [9]; in test [10]) was 0.01 to 0.5 µg/mL (≈ 0.00537 to 0.268 µM) throughout.
